From patent US11866518B2, “Bicyclic peptide ligands specific for TSLP” (BicycleTx Limited, priority 2020, dated 2024) come the findings set out here.

*1 amine or outer side, *2 acyl side, *3 side chain or, on linkers, in order; H or OH if unused. Where a SMILES comes first, the peptide text is derived from it. Bridges are numbered along the chain shown (N, C = ends). [ ]: non-standard residue; d: D form. TATA = O=C(CC[*:1])N1CN(C(=O)CC[*:2])CN(C(=O)CC[*:3])C1; Orn = NCCC[C@H](N)C(=O)O

Sequence of TSLP (Q969D9 29-159): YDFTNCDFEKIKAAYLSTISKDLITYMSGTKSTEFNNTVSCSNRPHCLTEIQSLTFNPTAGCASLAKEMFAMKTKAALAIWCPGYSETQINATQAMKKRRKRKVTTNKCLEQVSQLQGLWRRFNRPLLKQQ

The assay addresses TSLP (Homo sapiens, UniProt Q969D9). Put plainly: Human TSLP Surface Plasmon Resonance (SPR) binding assay. Particulars: biotinylated human TSLP immobilized on streptavidin chip; 20° C.; steady-state or kinetic 1:1 fit; read-out: hTSLP SPR Kd. Also noted: The resulting construct spCD33-6×HN-TEV-hTSLP(29-159)-Avi; 6xHN tag with TEV site (N, cleaved yes); made in house; host or cells: Expi293F cells.
As a reminder, the Kd is the free concentration of one partner at which half of the binding sites on the other are occupied at equilibrium, for simple one-to-one binding. With `CC(C)C[C@@H]1NC(=O)[C@H](Cc2c[nH]c3ccccc23)NC(=O)[C@H](Cc2c[nH]c3ccccc23)NC(=O)[C@H]([C@@H](C)O)NC(=O)[C@H](CCC(=O)O)NC(=O)[C@@H]2CSCCC(=O)N3CN(CN(C3)C(=O)CCSC[C@H](N)C(=O)N[C@@H](CCCN)C(=O)N[C@@H](CCC(=O)O)C(=O)N[C@@H](CC(C)C)C(=O)N[C@@H](CC(=O)O)C(=O)N3CCC[C@H]3C(=O)N[C@@H](Cc3c[nH]c4ccccc34)C(=O)N[C@@H]([C@@H](C)O)C(=O)N2)C(=O)CCSC[C@@H](C(N)=O)NC1=O` [Example 180, (SEQ ID NO: 131)] (H-C[Orn]ELDPWTCETWWLC-NH2; linker 1-9-15 via TATA; N-terminus and C-terminus assumed), the Kd was 300 nM.

With `CC(C)C[C@@H]1NC(=O)[C@H](Cc2c[nH]c3ccccc23)NC(=O)[C@H](Cc2c[nH]c3ccccc23)NC(=O)[C@H]([C@@H](C)O)NC(=O)[C@H](CCC(=O)O)NC(=O)[C@@H]2CSCCC(=O)N3CN(CN(C3)C(=O)CCSC[C@H](N)C(=O)N[C@@H](CCC(N)=O)C(=O)N[C@@H](CCC(=O)O)C(=O)N[C@@H](CC(C)C)C(=O)N[C@@H](CC(=O)O)C(=O)N3CCC[C@H]3C(=O)N[C@@H](Cc3c[nH]c4ccccc34)C(=O)N[C@@H]([C@@H](C)O)C(=O)N2)C(=O)CCSC[C@@H](C(N)=O)NC1=O` [Example 181, (SEQ ID NO: 132)] (H-CQELDPWTCETWWLC-NH2; linker 1-9-15 via TATA; N-terminus and C-terminus assumed), the Kd was 310 nM. For `CC(C)C[C@@H]1NC(=O)[C@H](Cc2c[nH]c3ccccc23)NC(=O)[C@H](Cc2c[nH]c3ccccc23)NC(=O)[C@H]([C@@H](C)O)NC(=O)[C@H](CCC(=O)O)NC(=O)[C@@H]2CSCCC(=O)N3CN(CN(C3)C(=O)CCSC[C@H](N)C(=O)N[C@@H]([C@@H](C)O)C(=O)N[C@@H](CCC(=O)O)C(=O)N[C@@H](CC(C)C)C(=O)N[C@@H](CC(=O)O)C(=O)N3CC(F)(F)C[C@H]3C(=O)N[C@@H](Cc3c[nH]c4ccccc34)C(=O)N[C@@H]([C@@H](C)O)C(=O)N2)C(=O)CCSC[C@@H](C(N)=O)NC1=O` [Example 182, (SEQ ID NO: 133)] the value was 1300 nM; for `CC(C)C[C@@H]1NC(=O)[C@H](Cc2c[nH]c3ccccc23)NC(=O)[C@H](Cc2c[nH]c3ccccc23)NC(=O)[C@H](CC(=O)O)NC(=O)[C@H](CCC(=O)O)NC(=O)[C@@H]2CSCCC(=O)N3CN(CN(C3)C(=O)CCSC[C@@H](C(=O)N[C@@H](C)C(N)=O)NC1=O)C(=O)CCSC[C@H](NC(=O)[C@H](C)N)C(=O)N[C@@H](C(C)C)C(=O)N[C@@H](CC(=O)O)C(=O)N[C@@H](CC(C)C)C(=O)N[C@@H](CC(=O)O)C(=O)N1CCC[C@H]1C(=O)N[C@@H](Cc1c[nH]c3ccccc13)C(=O)N[C@@H](CO)C(=O)N2` [Example 183, A-(SEQ ID NO: 134)-A] (H-ACVDLDPWSCEDWWLCA-NH2; linker 2-10-16 via TATA; N-terminus and C-terminus assumed), 330 nM. Regarding `CC(C)C[C@@H]1NC(=O)[C@H](Cc2c[nH]c3ccccc23)NC(=O)[C@H](Cc2c[nH]c3ccccc23)NC(=O)[C@H]([C@@H](C)O)NC(=O)[C@H](CCC(=O)O)NC(=O)[C@@H]2CSCCC(=O)N3CN(CN(C3)C(=O)CCSC[C@H](N)C(=O)N[C@@H]([C@@H](C)O)C(=O)N[C@@H](CCC(=O)O)C(=O)N[C@@H](CC(C)C)C(=O)N[C@@H](CC(=O)O)C(=O)N3CCC[C@H]3C(=O)N[C@@H](Cc3c[nH]c4ccccc34)C(=O)N[C@@H]([C@@H](C)O)C(=O)N2)C(=O)CCSC[C@@H](C(N)=O)NC1=O` [Example 185, (SEQ ID NO: 121)], the equilibrium dissociation constant (Kd) came to 260 nM. For `CC(C)C[C@@H]1NC(=O)[C@H](Cc2c[nH]c3ccccc23)NC(=O)[C@H](Cc2c[nH]c3ccccc23)NC(=O)[C@H](CC(=O)O)NC(=O)[C@@H]2CCCN2C(=O)[C@@H]2CSCCC(=O)N3CN(CN(C3)C(=O)CCSC[C@H](NC(=O)[C@H](CC(C)C)NC(=O)[C@H](CC(=O)O)NC(=O)[C@@H](N)CCCNC(=N)N)C(=O)N[C@@H]([C@@H](C)O)C(=O)N[C@@H](CC(=O)O)C(=O)N[C@@H](CC(C)C)C(=O)N[C@@H](CC(=O)O)C(=O)N3CCC[C@H]3C(=O)N[C@@H](Cc3c[nH]c4ccccc34)C(=O)N[C@@H]([C@@H](C)O)C(=O)N2)C(=O)CCSC[C@@H](C(=O)N[C@@H](C)C(N)=O)NC1=O` [Example 189, RDL-(SEQ ID NO: 138)-A] (H-RDLCTDLDPWTCPDWWLCA-NH2; linker 4-12-18 via TATA; N-terminus and C-terminus assumed) the value was 310 nM; for `CC(C)C[C@@H]1NC(=O)[C@H](Cc2c[nH]c3ccccc23)NC(=O)[C@H](Cc2c[nH]c3ccccc23)NC(=O)[C@H](CO)NC(=O)[C@H](CO)NC(=O)[C@@H]2CSCCC(=O)N3CN(CN(C3)C(=O)CCSC[C@H](NC(=O)[C@H](CCC(N)=O)NC(=O)[C@H](Cc3c[nH]cn3)NC(=O)[C@@H](NC(=O)[C@H](CC(N)=O)NC(=O)[C@@H](NC(=O)[C@@H](N)CCCNC(=N)N)C(C)C)[C@@H](C)O)C(=O)N[C@@H](CCCNC(=N)N)C(=O)N[C@@H](CC(=O)O)C(=O)N[C@@H](CC(C)C)C(=O)N[C@@H](CC(=O)O)C(=O)N3CCC[C@H]3C(=O)N[C@@H](Cc3c[nH]c4ccccc34)C(=O)N[C@@H]([C@@H](C)O)C(=O)N2)C(=O)CCSC[C@@H](C(=O)N[C@@H](C)C(N)=O)NC1=O` [Example 190, RVNTHQ-(SEQ ID NO: 122)-A], 81 nM; for `CC(C)C[C@@H]1NC(=O)[C@H](Cc2c[nH]c3ccccc23)NC(=O)[C@@H]2CSCCC(=O)N3CN(CN(C3)C(=O)CCSC[C@@H](C(=O)N[C@@H](C)C(N)=O)NC(=O)[C@@H]3CCCN3C1=O)C(=O)CCSC[C@H](NC(=O)[C@H](C)N)C(=O)N[C@@H](CC(=O)O)C(=O)N[C@@H](Cc1c[nH]c3ccccc13)C(=O)N[C@@H](CCC(N)=O)C(=O)N[C@@H](Cc1c[nH]c3ccccc13)C(=O)N[C@@H](CO)C(=O)N[C@@H](Cc1ccc(O)cc1)C(=O)N[C@@H](CC(=O)O)C(=O)N2` [Example 196, A-(SEQ ID NO: 141)-A] (H-ACDWQWSYDCWLPCA-NH2; linker 2-10-14 via TATA; N-terminus assumed), 6100 nM. For `CC(C)C[C@@H]1NC(=O)[C@H](Cc2c[nH]c3ccccc23)NC(=O)[C@@H]2CSCCC(=O)N3CN(CN(C3)C(=O)CCSC[C@@H](C(=O)N[C@@H](C)C(N)=O)NC(=O)[C@@H]3CCCN3C1=O)C(=O)CCSC[C@H](NC(=O)[C@H](C)N)C(=O)N[C@@H](CC(=O)O)C(=O)N[C@@H](Cc1c[nH]c3ccccc13)C(=O)N[C@@H](C(C)C)C(=O)N[C@@H](Cc1c[nH]c3ccccc13)C(=O)N[C@@H](CCC(=O)O)C(=O)N[C@@H](Cc1ccc(O)cc1)C(=O)N[C@@H](CC(=O)O)C(=O)N2` [Example 197, A-(SEQ ID NO: 142)-A] (H-ACDWVWEYDCWLPCA-NH2; linker 2-10-14 via TATA; N-terminus and C-terminus assumed) the value was 460 nM; for `CC(C)C[C@@H]1NC(=O)[C@H](Cc2c[nH]c3ccccc23)NC(=O)[C@@H]2CSCCC(=O)N3CN(CN(C3)C(=O)CCSC[C@H](NC(=O)CNC(=O)[C@H](CC(=O)O)NC(=O)[C@H](C)N)C(=O)N[C@@H](CCC(=O)O)C(=O)N[C@@H](Cc3c[nH]c4ccccc34)C(=O)N[C@@H](CC(N)=O)C(=O)N[C@@H](Cc3c[nH]c4ccccc34)C(=O)N[C@@H](C)C(=O)N[C@@H](Cc3ccc(O)cc3)C(=O)N[C@@H](CC(=O)O)C(=O)N2)C(=O)CCSC[C@@H](C(=O)N[C@@H](C)C(N)=O)NC(=O)CNC1=O` [Example 201, ADG-(SEQ ID NO: 146)-A] (H-ADGCEWNWAYDCWLGCA-NH2; linker 4-12-16 via TATA; N-terminus and C-terminus assumed), 170 nM. Under `CSCC[C@@H]1NC(=O)[C@H](Cc2c[nH]c3ccccc23)NC(=O)[C@H](CCCCN)NC(=O)[C@@H](NC(=O)[C@@H](NC(=O)[C@H](CCC(=O)O)NC(=O)[C@H](C)N)[C@@H](C)O)CSCCC(=O)N2CN3CN(C2)C(=O)CCSC[C@H](NC(=O)[C@H](CC(=O)O)NC(=O)[C@H](Cc2ccc(O)cc2)NC(=O)[C@H](CCC(=O)O)NC(=O)[C@H](Cc2c[nH]c4ccccc24)NC1=O)C(=O)N[C@@H](Cc1c[nH]c2ccccc12)C(=O)N[C@@H](CC(C)C)C(=O)N[C@@H](CO)C(=O)N[C@H](C(=O)N[C@@H](C)C(N)=O)CSCCC3=O` [Example 204, AET-(SEQ ID NO: 149)-A] (H-AETCKWMWEYDCWLSCA-NH2; linker 4-12-16 via TATA; N-terminus assumed) stands 100 nM; under `CC[C@H](C)[C@H](NC(=O)[C@@H]1CCCN1C(=O)[C@H](C)NC(=O)[C@@H]1CSCCC(=O)N2CN3CN(C2)C(=O)CCSC[C@H](NC(=O)[C@H](CC(=O)O)NC(=O)[C@H](Cc2ccc(O)cc2)NC(=O)[C@H]([C@@H](C)O)NC(=O)[C@H](Cc2c[nH]c4ccccc24)NC(=O)[C@H](CC(N)=O)NC(=O)[C@H](Cc2c[nH]c4ccccc24)NC(=O)[C@H](CC(=O)O)NC(=O)[C@@H](NC(=O)[C@H](C)N)CSCCC3=O)C(=O)N[C@@H](Cc2c[nH]c3ccccc23)C(=O)N[C@@H](CC(C)C)C(=O)N[C@@H](CC(=O)O)C(=O)N1)C(N)=O` [Example 206, A-(SEQ ID NO: 151)-API] (H-ACDWNWTYDCWLDCAPI-NH2; linker 2-10-14 via TATA; N-terminus and C-terminus assumed), 430 nM; under `CC(C)C[C@@H]1NC(=O)[C@H](Cc2c[nH]c3ccccc23)NC(=O)[C@@H]2CSCCC(=O)N3CN(CN(C3)C(=O)CCSC[C@@H](C(=O)N[C@@H](Cc3ccccc3)C(=O)N[C@@H](C)C(=O)N[C@@H](CCC(=O)O)C(N)=O)NC(=O)[C@@H]3CCCN3C1=O)C(=O)CCSC[C@H](NC(=O)[C@H](C)N)C(=O)N[C@@H](CC(=O)O)C(=O)N[C@@H](Cc1c[nH]c3ccccc13)C(=O)N[C@@H](CC(=O)O)C(=O)N[C@@H](Cc1c[nH]c3ccccc13)C(=O)N[C@@H](CC(=O)O)C(=O)N[C@@H](Cc1ccc(O)cc1)C(=O)N[C@@H](CC(=O)O)C(=O)N2` [Example 208, A-(SEQ ID NO: 153)-FAE] (H-ACDWDWDYDCWLPCFAE-NH2; linker 2-10-14 via TATA; N-terminus assumed), 340 nM.
